Assay results from patent US20240124439A1, “Pyrido[2,3-D]Imidazole Derivatives and Their Use As Inhibitors of ITK for the Treatment of Skin Disease” (Pfizer Inc., priority 2020, published 2024).

Experiments:
[1] = biological target: IL-2-Inducible T-Cell Kinase (ITK) (Homo sapiens (Human), UniProt Q08881); experiment: ITK enzyme assay (IL-2-inducible T-cell kinase activity); type: biochemical; settings: geometric mean of count n
Experimental: ITK activity was determined by measuring the effect of a test compound in an ITK enzyme assay.
1.0 M HEPES Buffer pH 7.5 solution was prepared as follows: 238.3 g HEPES free acid (Sigma) and 800 mL of water were combined, and the mixture was stirred until complete dissolution. The pH was adjusted to 7.5 via titration with 5N NaOH and the volume adjusted to 1000 mL. The solution was filtered and sterilized.
ITK assay buffer was prepared as follows: 50 mL of HPLC-grade water was treated with 2 mL of 1.0 M HEPES Buffer, 500 μL of 2% Gelatin (Sigma), 1.0 mL of aqueous MgCl2 solution (1.0 M), and 1.0 mL of aqueous glutathione solution (0.5 M), and the solution was mixed. The solution was brought to 99 mL in a graduated cylinder by addition of water and sterilized through a 0.2 μm filter. 0.1 mL of Brij-35™ Surfact-Amps™ Detergent Solution (10% w/v aqueous solution, ThermoFisher) and 1.0 mL of ATP (Teknova,100 mM) were added and the solution was mixed.
Preparation of 1.33× ITK enzyme solution was as follows: 49.99 mL of ITK assay buffer was treated with 4.1 μL of ITK enzyme (ITK FL (N-Flag and C-His tagged, […]) Lake Pharma, 0.25 mg/ml in a buffer containing 25 mM Tris pH 7.8, 150 mM NaCl, 10% glycerol and 2 mM TCEP) and the mixture was gently agitated. The resulting solution was stored on ice. 30 Minutes prior to use, the enzyme solution was removed from ice and equilibrated to RT by incubation in a RT water bath.
Preparation of 4× ITK substrate solution was as follows: 50 mL of ITK assay buffer was treated with 100 μL of BTK peptide (China Peptide Company, 2 mM stock solution in DMSO). The tube was capped, mixed by gently inverting the tube, and then stored on ice. 30 Minutes prior to use, the substrate solution was removed from ice and equilibrated to RT by incubation in a RT water bath.
At the time of assay, 7.5 μL of the 1.33× ITK enzyme solution was added to plate wells containing 0.1 μL of varying concentrations of test compound in DMSO. The plate was incubated 30 min at RT. The plate wells were each treated with 2.5 uL of the 4× ITK substrate solution and the plate was sealed (TopSeal™, Perkin Elmer). The plate was spun at 1000 rpm for 30 sec and then incubated for 60 min at RT. The seal was removed, and each well was treated with 10 μL of Stop/Detect Buffer (20 mM HEPES pH 7.5, 0.01% gelatin, 1 nM LANCE PT66 (Perkin Elmer), 16.5 μg/ml Surelight APC (Perkin Elmer), 10 mM EDTA, 250 mM NaCl). The plate was again covered and was spun at 1000 rpm for […]. The plate was allowed to incubate overnight at RT and in a closed carrier to reduce dehydration. The seal was removed, and the fluorescence was read with a plate reader with an excitation wavelength of […]. The concentrations and resulting effect values for the tested compound were plotted and the concentration of compound required for 50% effect (IC50) was determined with the four-parameter logistic dose response equation.

[2] = test system: activated CD4+ human T-cells (IL-2); experiment: IL-2 inhibition in supernatants from activated CD4+ human T-cells (cisbio HTRF); type: cell-based; settings: T-cell; CD3/CD28-activated CD4+ human T cells, ImmunoCult stimulation 20 to 24 hrs; geometric mean of count n
Experimental: IL-2 inhibition activity in supernatants from activated CD4+ human T-cells was determined by measuring the effect of a test compound on the activity using the cisbio HTRF™ technology.
Human CD4+ T cells were activated with CD3/CD28 for 3 days and expanded for an additional 4-6 days (7 to 9 days total). On day 0, frozen CD4+ T cells were thawed, treated with CD3/CD28 Dynabeads, and incubated at 37° C./5% CO2. On day 3, the beads were removed, and the cells were diluted to 5×10^5 cells/cm^2, placed in G-Rex10 flask, and incubated at 37° C./5% CO2. On day 7 to day 9 the cells were removed from the G-Rex flasks, counted and diluted back to 1×10^6 cells/ml in standard tissue culture flask.
The expanded CD4+ T-cells were centrifuged at 300×g for 10 minutes and resuspended to 0.5 million cells per ml (30,000 cells/well). 60 μl of CD4+ T cells were added per well to a 384 well plate containing 0.1 μL of varying concentrations of test compound in DMSO. The plates were incubated for 15 min at 37° C./5% CO2. 20 μl of diluted ImmunoCult™ (STEMCELL Technologies, 1:12.5 in T cell assay media) were added to all wells of the plate (1:50 final assay concentration). The plates were incubated for an additional 20 to 24 hrs at 37° C./5% CO2. The plates were centrifuged at 300×g for 10 minutes. 16 μL of supernatant was removed and combined with 4 μl of IL-2 HTRF Abs. (cisbio kit). Plates were incubated for 3 hours at RT and read with an EnVision plate reader at 665 nm and 615 nm wavelengths. The concentrations and resulting effect values for the tested compound were plotted and the concentration of compound required for 50% effect (IC50) was determined with the four-parameter logistic dose response equation.

Chain of IL-2-Inducible T-Cell Kinase (ITK) (Q08881 whole entry): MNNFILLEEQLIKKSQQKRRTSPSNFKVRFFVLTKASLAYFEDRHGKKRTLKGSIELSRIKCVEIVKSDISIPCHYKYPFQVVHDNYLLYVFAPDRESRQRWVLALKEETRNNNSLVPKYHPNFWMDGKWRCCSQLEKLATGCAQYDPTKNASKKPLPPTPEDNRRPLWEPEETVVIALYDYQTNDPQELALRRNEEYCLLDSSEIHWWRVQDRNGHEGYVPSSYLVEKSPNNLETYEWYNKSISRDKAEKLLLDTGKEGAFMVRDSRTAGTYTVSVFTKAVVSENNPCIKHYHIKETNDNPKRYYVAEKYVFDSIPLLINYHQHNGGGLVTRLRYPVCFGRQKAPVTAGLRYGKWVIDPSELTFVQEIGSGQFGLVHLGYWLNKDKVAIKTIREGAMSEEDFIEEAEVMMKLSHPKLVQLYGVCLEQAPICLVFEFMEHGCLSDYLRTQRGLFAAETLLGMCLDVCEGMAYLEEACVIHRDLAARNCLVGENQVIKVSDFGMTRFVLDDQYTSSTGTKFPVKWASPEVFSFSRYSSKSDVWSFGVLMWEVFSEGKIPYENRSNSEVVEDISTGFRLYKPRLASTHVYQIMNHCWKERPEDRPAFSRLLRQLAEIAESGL

SMILES | IC50 [1] | IC50 [2]
C[C@H](C(=O)N(C)c1cnc2[nH]c(-c3n[nH]c4c3C[C@@H]3C[C@]3(C)C4)nc2c1)N1CCCCC1 [Example 117, (R)-N-Methyl-N-(2-((4aS,5aR)-5a-methyl-1,4,4a,5,5a,6-hexahydrocyclopropa[f]indazol-3-yl)-3H-imidazo[4,5-b]pyridin-6-yl)-2-(piperidin-1-yl)propanamide] | 275 nM | 769 nM
CN(C(=O)CC1CCOCC1)c1cnc2[nH]c(-c3n[nH]c4c3CCC(C)(C)C4)nc2c1 [Example 114, N-(2-(6,6-Dimethyl-4,5,6,7-tetrahydro-1H-indazol-3-yl)-3H-imidazo[4,5-b]pyridin-6-yl)-N-methyl-2-(tetrahydro-2H-pyran-4-yl)acetamide] | 156 nM | 1510 nM
CN(C(=O)[C@H]1[C@@H]2COC[C@@H]21)c1cnc2nc(-c3n[nH]c4c3C[C@@H]3C[C@]3(C)C4)[nH]c2c1 [Example 69, (1R,5S,6r)-N-Methyl-N-(2-((4aS,5aR)-5a-methyl-1,4,4a,5,5a,6-hexahydrocyclopropa[f]indazol-3-yl)-1H-imidazo[4,5-b]pyridin-6-yl)-3-oxabicyclo[3.1.0]hexane-6-carboxamide] | 292 nM | 1160 nM
C[C@H](C(=O)N(C)c1cnc2[nH]c(-c3n[nH]c4c3C[C@@H]3C[C@]3(C)C4)nc2c1)N1C[C@H]2CC[C@@H]1CO2 [Example 115] | 142 nM | 415 nM
CCC(CC)C(=O)N(C)c1cnc2[nH]c(-c3n[nH]c4c3CCC(C)(C)C4)nc2c1 [Example 107, N-(2-(6,6-Dimethyl-4,5,6,7-tetrahydro-1H-indazol-3-yl)-3H-imidazo[4,5-b]pyridin-6-yl)-2-ethyl-N-methylbutanamide] | 564 nM | 1870 nM
CN(C(=O)C1CCOCC1)c1cnc2[nH]c(-c3n[nH]c4c3CCC(C)(C)C4)nc2c1 [Example 90, N-(2-(6,6-Dimethyl-4,5,6,7-tetrahydro-1H-indazol-3-yl)-3H-imidazo[4,5-b]pyridin-6-yl)-N-methyltetrahydro-2H-pyran-4-carboxamide] | 545 nM | 892 nM
CN(C(=O)C1(C)CCCCO1)c1cnc2[nH]c(-c3n[nH]c4c3CCC(C)(C)C4)nc2c1 (stereo not drawn) [Example 112, N-(2-(6,6-Dimethyl-4,5,6,7-tetrahydro-1H-indazol-3-yl)-3H-imidazo[4,5-b]pyridin-6-yl)-N,2-dimethyltetrahydro-2H-pyran-2-carboxamide] | 234 nM | 895 nM
CC(C)CCC(=O)N(C)c1cnc2[nH]c(-c3n[nH]c4c3CCC(C)(C)C4)nc2c1 [Example 106, N-(2-(6,6-Dimethyl-4,5,6,7-tetrahydro-1H-indazol-3-yl)-3H-imidazo[4,5-b]pyridin-6-yl)-N,4-dimethylpentanamide] | 245 nM | 1090 nM

Now those with a lower IC50 [1], led by results:

IC50 [1] | IC50 [2] | SMILES
12 nM | 59 nM | CN(C(=O)[C@@H]1C[C@@H]2[C@H](C1)C2(F)F)c1cnc2nc(-c3n[nH]c4c3C[C@@H]3C[C@]3(C)C4)[nH]c2c1 [Example 67, (1R,3s,5S)-6,6-Difluoro-N-methyl-N-(2-((4aS,5aR)-5a-methyl-1,4,4a,5,5a,6-hexahydrocyclopropa[f]indazol-3-yl)-1H-imidazo[4,5-b]pyridin-6-yl)bicyclo[3.1.0]hexane-3-carboxamide]
101 nM | 226 nM | C[C@H](C(=O)N(C)c1cnc2[nH]c(-c3n[nH]c4c3C[C@@H]3C[C@]3(C)C4)nc2c1)N1CCCOCC1 [Example 44, (R)-N-Methyl-N-(2-((4aS,5aR)-5a-methyl-1,4,4a,5,5a,6-hexahydrocyclopropa[f]indazol-3-yl)-3H-imidazo[4,5-b]pyridin-6-yl)-2-(1,4-oxazepan-4-yl)propenamide]
72 nM | 534 nM | CN(C(=O)C(F)C1CCOCC1)c1cnc2nc(-c3n[nH]c4c3C[C@@H]3C[C@]3(C)C4)[nH]c2c1 (stereo partly drawn) [Example 11, 2-Fluoro-N-methyl-N-(2-((4aS,5aR)-5a-methyl-1,4,4a,5,5a,6-hexahydrocyclopropa[f]indazol-3-yl)-1H-imidazo[4,5-b]pyridin-6-yl)-2-(tetrahydro-2H-pyran-4-yl)acetamide]
130 nM | 709 nM | CC(=O)N(C)c1cnc2[nH]c(-c3n[nH]c4c3C[C@@H]3C[C@]3(C)C4)nc2c1 [Example 25, N-methyl-N-(2-((4aS,5aR)-5a-Methyl-1,4,4a,5,5a,6-hexahydrocyclopropa[f]indazol-3-yl)-1H-imidazo[4,5-b]pyridin-6-yl)acetamide]
103 nM | 208 nM | CN(C(=O)[C@@H]1CCCCO1)c1cnc2nc(-c3n[nH]c4c3C[C@@H]3C[C@]3(C)C4)[nH]c2c1 [Example 64, (S)-N-Methyl-N-(2-((4aS,5aR)-5a-methyl-1,4,4a,5,5a,6-hexahydrocyclopropa[f]indazol-3-yl)-1H-imidazo[4,5-b]pyridin-6-yl)tetrahydro-2H-pyran-2-carboxamide]
27 nM | 324 nM | CN(c1cnc2nc(-c3n[nH]c4c3C[C@@H]3C[C@]3(C)C4)[nH]c2c1)C(=O)[C@H]1C[C@@H](C)C1 [Example 89, (1s,3R)-N,3-Dimethyl-N-(2-((4aS,5aR)-5a-methyl-1,4,4a,5,5a,6-hexahydrocyclopropa[f]indazol-3-yl)-1H-imidazo[4,5-b]pyridin-6-yl)cyclobutane-1-carboxamide]
21 nM | 182 nM | CN(C(=O)C1CCCC1)c1cnc2nc(-c3n[nH]c4c3C[C@@H]3C[C@]3(C)C4)[nH]c2c1 [Example 81, N-Methyl-N-(2-((4aS,5aR)-5a-methyl-1,4,4a,5,5a,6-hexahydrocyclopropa[f]indazol-3-yl)-1H-imidazo[4,5-b]pyridin-6-yl)cyclopentanecarboxamide]
43 nM | 1590 nM | CN(C(=O)CN1CCCCC1=O)c1cnc2nc(-c3n[nH]c4c3C[C@@H]3C[C@]3(C)C4)[nH]c2c1 [Example 79, N-Methyl-N-(2-((4aS,5aR)-5a-methyl-1,4,4a,5,5a,6-hexahydrocyclopropa[f]indazol-3-yl)-1H-imidazo[4,5-b]pyridin-6-yl)-2-(2-oxopiperidin-1-yl)acetamide]
100 nM | 367 nM | CCCC(=O)N(C)c1cnc2[nH]c(-c3n[nH]c4c3CCC(C)(C)C4)nc2c1 [Example 108, N-(2-(6,6-Dimethyl-4,5,6,7-tetrahydro-1H-indazol-3-yl)-3H-imidazo[4,5-b]pyridin-6-yl)-N-methylbutyramide]
63 nM | 182 nM | CN(C(=O)C(C)(C)C1CCOCC1)c1cnc2nc(-c3n[nH]c4c3CC3C[C@]3(C)C4)[nH]c2c1 (stereo partly drawn) [Example 60, N,2-Dimethyl-N-(2-((4aS,5aR)-5a-methyl-1,4,4a,5,5a,6-hexahydrocyclopropa[f]indazol-3-yl)-1H-imidazo[4,5-b]pyridin-6-yl)-2-(tetrahydro-2H-pyran-4-yl)propenamide]
